According to US5681738A, “Use of 10-oxo-trans-8-decenoic acid in mushroom cultivation” (The Penn State Research Foundation, priority 1992, dated 1997):

Columns and labels:
[1] = system: Agaricus bisporus mycelia; assay: Linear growth rate of mycelia on potato dextrose yeast (PDY) agar at 25° C.; format: cell-based, Agaricus bisporus (hybrid off-white); conditions: for linear growth rate of mycelia (in words): PDY agar; for Linear growth rate: control 5.66
Protocol: (§1) The commercial mushroom spawn (hybrid off-white), Agaricus bisporus (Lange) Imbach, was obtained from Alpha Spawn Co., Avondale, Pa., and inoculated onto potato dextrose yeast (PDY) agar (Difco) and incubated at 25° C. A pure culture was obtained from the grain spawn grown on petri dishes and re-inoculated into PDY agar and maintained at 25° C. before use.
(§2) The mushroom culture was grown on PDY agar or in PDY broth, both containing 0.5% yeast extract. The broth was dispensed into flasks prior to autoclaving, 50 mL. per flask, while 5 mL of sterile ODA solutions were aseptically added into flasks before inoculation.
(§3) To prepare ODA solutions, about 18.4 mg (0.1 mmole) of 10-oxo-trans-8-decenoic acid prepared as described above were dissolved in i mL ethanol and diluted with deionized water to 100 mL to give a molar concentration of 10^-3 M, and then diluted in order to add 1.0 mL of the solutions to each flask to give the required final concentrations.
Sterile ODA solutions were aseptically added into the autoclaved agar medium to achieve the desired final ODA concentrations, and then the medium was dispensed into petri dishes, ca 30 ml per dish. The levels of ODA tested included 2×10^-4, 10^-4, 10^-5, 10^-6 and 10^-7 M for both PDY agar and broth. […]
(§4) Methods for the estimation of total fungal growth include the measurement of dry matter, linear growth, carbon dioxide evolution, chitin, ATP as well as extracellular laccase activity (Cochrane, (1958); Wood, (1979)). In this research the linear growth rate was used to examine the growth of mushroom mycelia on agar plates, while the extracellular laccase activity and dry matter were determined to estimate the growth of mycelia in liquid cultures. Extracellular laccases (p-diphenol: oxygen oxidoreductase, EC 1.10.3.2) produced by various classes of fungi are reported to be involved in biotransformation of lignin and lignosulfonate (Anders et al., (1976)), as well as in the breakdown of cellulose by cellulase (Westermark et al., (1974a); Westermark et al., (1974b); Haars et al., (1980)). Although the role of laccase in growth and development of Agaricus bisporus is not well defined, it has been observed that laccase production correlated with mycelial biomass of this fungus (Wood, (1979); Matcham et al., (1985); Claydon et al., (1988)).

[2] = system: Agaricus bisporus mycelia; assay: Laccase activity of mycelia grown in potato dextrose yeast broth at 25° C.; format: cell-based, Agaricus bisporus (hybrid off-white)
Protocol: as §1, §2, §3
Sterile ODA solutions were aseptically added into the autoclaved agar medium to achieve the desired final ODA concentrations, and then the medium was dispensed into petri dishes, ca 30 ml per dish. The levels of ODA tested included 2×10^-4, 10^-4, 10^-5, 10^-6 and 10^-7 M for both PDY agar and broth. These flasks and dishes were inoculated with 1 mm mycelial plugs from 4-week old cultures and incubated statically at 25° C. for 5 weeks. Each week, ca 300 μL of broth was aseptically taken from the flasks for laccase assay, while the colony diameter of every petri dish was measured using a vernier caliper to calculate the linear growth of the culture.
The activity of laccase was assayed as described in Leonowicz et al., (1981). The reaction mixture consisted of 1.0 ml of 0.04M MES (2-[N-morpholino] ethanesulfonic acid, Sigma)-NaOH buffer, pH 5.3, 200 μL of 0.5 mM syringaldazine ([…], Sigma) in EtOH, and 100 μL of culture broth withdrawn from the flasks making up a final volume of 1.3 mL. The control mixture contained no culture broth. The change in absorbance was monitored for 5 mins at 525 nm. Laccase activity was expressed in units of kat, the conversion of 1 mole of syringaldazine per sec.
as §4

- mycelial growth by laccase activity and dry matter (in words) ([2]; 10^-6 and 10^-5 M (0.184 and 1.84 ppm), liquid culture): stimulated
SMILES: O=C/C=C/CCCCCCC(=O)O [ODA, 10-oxo-trans-8-decenoic acid]
- linear growth rate of mycelia (in words) ([1]; 2×10^-4 and 10^-4 M (36.8 and 18.4 ppm)): greatly increased
- linear growth rate of mycelia (in words) ([1]; 10^-5 M (1.84 ppm)): slightly increased
- activity at 200 µM ([1]; Agaricus bisporus, ODA 2 × 10^-4 M (36.8 ppm), control 1.00 d, significance letter a, read-out: Relative linear growth rate): 188%
- activity at 100 µM ([1]; Agaricus bisporus, ODA 10^-4 M (18.4 ppm), control 1.00 d, significance letter b, read-out: Relative linear growth rate): 150%
- activity at 10 µM ([1]; Agaricus bisporus, ODA 10^-5 M (1.84 ppm), control 1.00 d, significance letter c, read-out: Relative linear growth rate): 114%
- activity at 1 µM ([1]; Agaricus bisporus, ODA 10^-6 M (0.184 ppm), control 1.00 d, significance letters cd, read-out: Relative linear growth rate): 110%
- activity at 0.1 µM ([1]; Agaricus bisporus, ODA 10^-7 M (0.0184 ppm), control 1.00 d, significance letters cd, read-out: Relative linear growth rate): 105%
- Linear growth rate ([1]; ODA 2 × 10^-4 M (36.8 ppm) in PDY agar): 9.85 mm/wk
- Linear growth rate ([1]; ODA 10^-4 M (18.4 ppm) in PDY agar): 8.42 mm/wk
- Linear growth rate ([1]; ODA 10^-5 M (1.84 ppm) in PDY agar): 6.40 mm/wk
- Linear growth rate ([1]; ODA 10^-6 M (0.184 ppm) in PDY agar): 6.17 mm/wk
- Linear growth rate ([1]; ODA 10^-7 M (0.0184 ppm) in PDY agar): 5.90 mm/wk
- effect on mushroom mycelial growth (in words) ([1]; PDY agar and broth, linear growth, dry matter and laccase activity): significant stimulatory effect
- LOG [Laccase activity (mkat/ml)] ([2]; ODA 2 × 10^-4 M (36.8 ppm), Week 1, control 0.49): 0.25 LOG (mkat/ml)
- LOG [Laccase activity (mkat/ml)] ([2]; ODA 2 × 10^-4 M (36.8 ppm), Week 2, control 1.19): 1.84 LOG (mkat/ml)
- LOG [Laccase activity (mkat/ml)] ([2]; ODA 2 × 10^-4 M (36.8 ppm), Week 3, control 1.97): 2.07 LOG (mkat/ml)
- LOG [Laccase activity (mkat/ml)] ([2]; ODA 2 × 10^-4 M (36.8 ppm), Week 4, control 2.37): 2.15 LOG (mkat/ml)
- LOG [Laccase activity (mkat/ml)] ([2]; ODA 2 × 10^-4 M (36.8 ppm), Week 5, control 2.74): 2.38 LOG (mkat/ml)
- LOG [Laccase activity (mkat/ml)] ([2]; ODA 10^-4 M (18.4 ppm), Week 1, control 0.49): 1.04 LOG (mkat/ml)
- LOG [Laccase activity (mkat/ml)] ([2]; ODA 10^-4 M (18.4 ppm), Week 2, control 1.19): 2.13 LOG (mkat/ml)
- LOG [Laccase activity (mkat/ml)] ([2]; ODA 10^-4 M (18.4 ppm), Week 3, control 1.97): 2.29 LOG (mkat/ml)
- LOG [Laccase activity (mkat/ml)] ([2]; ODA 10^-4 M (18.4 ppm), Week 4, control 2.37): 2.38 LOG (mkat/ml)
- LOG [Laccase activity (mkat/ml)] ([2]; ODA 10^-4 M (18.4 ppm), Week 5, control 2.74): 2.64 LOG (mkat/ml)
- LOG [Laccase activity (mkat/ml)] ([2]; ODA 10^-5 M (1.84 ppm), Week 1, control 0.49): 1.63 LOG (mkat/ml)
- LOG [Laccase activity (mkat/ml)] ([2]; ODA 10^-5 M (1.84 ppm), Week 2, control 1.19): 2.62 LOG (mkat/ml)
- LOG [Laccase activity (mkat/ml)] ([2]; ODA 10^-5 M (1.84 ppm), Week 3, control 1.97): 2.90 LOG (mkat/ml)
- LOG [Laccase activity (mkat/ml)] ([2]; ODA 10^-5 M (1.84 ppm), Week 4, control 2.37): 3.20 LOG (mkat/ml)
- LOG [Laccase activity (mkat/ml)] ([2]; ODA 10^-5 M (1.84 ppm), Week 5, control 2.74): 3.53 LOG (mkat/ml)
- LOG [Laccase activity (mkat/ml)] ([2]; ODA 10^-6 M (0.184 ppm), Week 1, control 0.49): 1.16 LOG (mkat/ml)
- LOG [Laccase activity (mkat/ml)] ([2]; ODA 10^-6 M (0.184 ppm), Week 2, control 1.19): 2.34 LOG (mkat/ml)
- LOG [Laccase activity (mkat/ml)] ([2]; ODA 10^-6 M (0.184 ppm), Week 3, control 1.97): 2.76 LOG (mkat/ml)
- LOG [Laccase activity (mkat/ml)] ([2]; ODA 10^-6 M (0.184 ppm), Week 4, control 2.37): 3.07 LOG (mkat/ml)
- LOG [Laccase activity (mkat/ml)] ([2]; ODA 10^-6 M (0.184 ppm), Week 5, control 2.74): 3.43 LOG (mkat/ml)
- LOG [Laccase activity (mkat/ml)] ([2]; ODA 10^-7 M (0.0184 ppm), Week 1, control 0.49): 0.73 LOG (mkat/ml)
- LOG [Laccase activity (mkat/ml)] ([2]; ODA 10^-7 M (0.0184 ppm), Week 2, control 1.19): 2.15 LOG (mkat/ml)
- LOG [Laccase activity (mkat/ml)] ([2]; ODA 10^-7 M (0.0184 ppm), Week 3, control 1.97): 2.57 LOG (mkat/ml)
- LOG [Laccase activity (mkat/ml)] ([2]; ODA 10^-7 M (0.0184 ppm), Week 4, control 2.37): 2.86 LOG (mkat/ml)
- LOG [Laccase activity (mkat/ml)] ([2]; ODA 10^-7 M (0.0184 ppm), Week 5, control 2.74): 3.08 LOG (mkat/ml)
